The subject of one data set is HeLa cells. The experiment in a line: Cellular toxicity to HeLa cells, measles assay. The following applies: Ribavirin in μg/mL.
Data set [1] relates to Measles virus strain Edmonston. The experiment in a line: microbe, parasite or virus in culture. The data set is classed as cell-based.
Data set [2] has as its system Streptococcus agalactiae lsa(E). The experiment in a line: Broth microdilution MIC (CLSI). For orientation: In broth dilution the organism is exposed to a series of concentrations in liquid medium.
Data set [3] concerns Staphylococcus aureus ATCC49951. The experiment in a line: Broth microdilution MIC (CLSI).
The subject of data set [4] is Staphylococcus aureus cfr (+). The data set can be described thus: Broth microdilution MIC (CLSI).
Data set [5] has as its system Staphylococcus aureus vga(A) (+). The experiment in a line: Broth microdilution MIC (CLSI).
Data set [6] concerns Streptococcus pneumoniae ATCC49619. The experiment in a line: Broth microdilution MIC (CLSI).
In data set [7] the test system is influenza A virus, porcine reproductive and respiratory syndrome virus (PRRSV) type 1 and 2. The following applies: viral up-take assay 4 hours post inoculation, WO 2009/106839; cited from earlier work.
The subject of data set [8] is alpha coronavirus 229E (HCoV-229E or CoV229E). The data set can be described thus: Anti-coronavirus cytoprotection assay (inhibition of virus-induced CPE). In kind it is cell-based, human corona virus (CoV229E). The following applies: for pEC50: Human coronavirus 229E, MRC5, 144 h; for reduction of viral CPE: MRC-5 / CoV229E. As to the method:
Objective: The assay measured the inhibition of virus-induced cytopathic effects (CPE) and cell viability following alpha coronavirus 229E (HCoV-229E or CoV229E) in MRC-5 cells 6 days post infections with the virus by various concentrations of the investigated compounds.
Following incubation at 37° C. and at 5% CO2 for 6 days, cell viability was measured by XTT tetrazolium dye staining. The optical density of the cell culture plate was determined spectrophotometrically at 450 and 650 nm. Percent reduction of the virus-infected cells and the percent cell viability of uninfected drug control wells were calculated to determine the effective concentration at which 50% of cytopathic effect was inhibited (EC50) and the cytotoxic concentration (TC50) using four parameter curve fit analysis. The antiviral compound Remdesivir served as positive control.

A further data set relates to MRC-5 cells. The following applies: for cytotoxic effect on the viability of the cell control: MRC-5.
A short description of data set [9]: in vitro. The following applies: human.
Data set [10] can be described thus: in vitro. The following applies: human. This is another data set of the same source.
The subject of data set [11] is respiratory syncytial virus (RSV B18537). The experiment in a line: Anti-RSV cytoprotection assay, strain RSV B18537. The data set is classed as cell-based.
Data set [12] has as its system human respiratory syncytial virus (strain RSVA2). The data set can be described thus: Anti-RSV cytoprotection assay (strain RSVA2). The following applies: for reduction of viral CPE: HEp2 / RSVA2; for pEC50: human respiratory syncytial virus, HEp-2, 144 h, HEp2 cells infected with RSVA2, 6 days post infection, XTT. In kind it is cell-based. In general terms: Tetrazolium dyes change colour on reduction, which living cells bring about.

The nature of data set [13]: Cell viability of uninfected HEp2 drug control wells (XTT), RSVA2 assay. The data set is classed as cell-based, human. The following applies: human, HEp2 cells (uninfected drug control wells); HEp2 cells, RSVA2 assay; read-out: TC50.
The test system of a further data set is HEp2 cells. The data set is described as above. In kind it is cell-based, human. The following applies: HEp2.
The subject of data set [14] is respiratory syncytial virus (RSV ALONG). The data set can be described thus: Anti-RSV cytoprotection assay, strain RSV ALONG. The data set is classed as cell-based.
Data set [15] in a line: Metabolic stability in primary mouse hepatocytes. The following applies: 1 μg/mL, 4 hours, 37° C.
A short description of data set [16]: Cellular toxicity to HEp2 cells, RSV ALONG / RSV B18537 assays. In kind it is cell-based. The following applies: human, RSV ALONG table, read-out: TC50 (the source's name).
Data set [17] can be described thus: Metabolic stability in primary human hepatocytes. The following applies: 1 μg/mL, 4 hours, 37° C.
Data set [18] concerns vesicular stomatitis virus (VSV). The following applies: cited from earlier work.
Another data set has as its system polio virus. The following applies: cited from earlier work.
Data set [19] has as its system influenza A virus strain (PR8). The following applies: influenza A PR8, concentration of 2 mg/mL; cited from earlier work.
Data set [20] deals with herpes simplex type 1 (HSV-1) virus. The following applies: cited from earlier work.
The mark [21] stands for this setting: Streptococcus agalactiae lsa(E) (n = 2), Lefamulin resistant.
[22] abbreviates: Staphylococcus aureus cfr (+) (n = 2), Lefamulin resistant.
Where [23] appears, read: Staphylococcus aureus vga(A) (+), Lefamulin resistant.
Setting [24] is: Staphylococcus aureus, ATCC49951.
[25] abbreviates: MRC-5 cells infected with CoV229E, 6 days post infection, XTT, read-out: EC50.

pEC50: −log10 of the molar value. Values after ≈ are worked out from the molar mass of the structure shown. Read-outs that look alike come from different tables or passages of the source.

As usually defined, the EC50 is the concentration needed to bring the measured effect to its halfway point. Low readings indicate a more potent agent, high ones a less potent agent. As a reminder, the MIC is the smallest concentration in the dilution series that meets the test's criterion for growth inhibition.

Turning to `NC(=O)c1ncn([C@@H]2O[C@H](CO)[C@@H](O)[C@H]2O)n1` [Ribavirin, reference compound], in the data set on HeLa cells, the TC50 worked out at 21.6 µg/mL (≈ 88.4 µM). The compound further showed a concentration giving a half-maximal response (EC50) in data set [1] (Measles morbillivirus, HeLa) of 1.88 µg/mL.
For the compound “12-epi-12-desvinyl-14-O-[(azepan-4-ylsulfanyl)-acetyl]-12-((E)-2-pyridin-3-yl-ethenyl) mutilin hydrochloride [Example 154, reference compound]”, the MIC in data set [2] (setting [21]) was 4 to 8 µg/mL; in data set [3] (Staphylococcus aureus ATCC49951, CAMHB), not above 0.03 µg/mL; in [4] (setting [22]), 0.5 to 4 µg/mL; in data set [5] (setting [23]), 2 to 4 µg/mL; in data set [6], not above 0.03 µg/mL.
For `C=C[C@]1(C)C[C@@H](OC(=O)CSC(C)(C)CNC(=O)[C@H](N)C(C)C)[C@]2(C)[C@H](C)CC[C@]3(CCC(=O)[C@H]32)[C@@H](C)[C@@H]1O` [Valnemulin], the antiviral activity entry in data set [7] is recorded as “did not exhibit antiviral activity”.
`CCC(CC)COC(=O)[C@H](C)N[P@](=O)(OC[C@H]1O[C@@](C#N)(c2ccc3c(N)ncnn23)[C@H](O)[C@@H]1O)Oc1ccccc1` [Remdesivir, reference compound] had a pEC50 in data set [8] of 6.96. For the same compound, the CC50 in the data set on MRC-5 cells (human) was more than 5 µM.
For `Cc1nccnc1/C=C/[C@@]1(C)C[C@@H](OC(=O)CSC2CCNCC2)[C@]2(C)[C@H](C)CC[C@]3(CCC(=O)[C@H]32)[C@@H](C)[C@@H]1O` [BC 9842, 12-epi-12-desvinyl-14-O-[(Piperidin-4-ylsulfanyl]-acetyl]-12-[2-(3-methyl-pyrazin-2-yl)-ethenyl]-mutilin], the values for the CC50 (in the data set “in vitro [9]”; in [16]) were 24.1 µM and 22.4 µM, respectively. In addition, the CC50 at 6 days (in the data set “in vitro [10]”; in data set [13]) was 22.4 µM each time. For the same compound, the pEC50 in data set [11] (human respiratory syncytial virus, HEp-2, HEp2 cells infected with RSV B18537, MOI 0.001) is 5.17; in [12], 5.34; in data set [8] (setting [25]) it was 5.72; in data set [14] (human respiratory syncytial virus, HEp-2) it was less than 4.65; in data set [1] (Measles morbillivirus, HeLa), 5.27. In addition, the MIC in data set [2] (Streptococcus agalactiae) was 0.5 to 1 µg/mL (≈ 0.877 to 1.75 µM); in [2] (setting [21]), not above 4 µg/mL; in data set [3] (setting [24]), not above 0.03 µg/mL; in [4] (Staphylococcus aureus), 1 to 2 µg/mL (≈ 1.75 to 3.51 µM); in data set [4] (setting [22]), not above 4 µg/mL; in data set [5] (Staphylococcus aureus), 4 µg/mL (≈ 7.02 µM). In addition, the MIC in data set [5] (setting [23]) is not above 4 µg/mL; in [6], not above 0.03 µg/mL. Moreover, the “reduction of viral CPE” value in [12] (5 μM) is 52.85%; in data set [12] (10 μM), 69.33%; in data set [8] (5 μM) it was 100%; in [8] (10 μM), 100%; in [1] (10 μM, HeLa / Measles virus) it was 69%. The “cytotoxic effect on the viability of the cell control” value is listed as “no cytotoxic effect” with HEp2 cells (5 μM); “no cytotoxic effect” in the data set on HEp2 cells (10 μM); “cytotoxic effect” in the data set on HEp2 cells (50 μM); “no cytotoxic effect” with MRC-5 cells (5 μM); “no cytotoxic effect” with MRC-5 cells (10 μM); “cytotoxic effect” in the data set on MRC-5 cells (50 μM). Besides, the “Metabolic stability against primary hepatocytes [% parent compound]” value is more than 60% in [15]; more than 60% in data set [15] (listed as BC-9842); 63.8% in [15] (listed as BC-¬9842); more than 20% in [17]; more than 20% in data set [17] (listed as BC-9842); 24.7% in data set [17] (listed as BC-¬9842).
As for `C=C[C@]1(C)C[C@@H](OC(=O)CO)[C@]2(C)[C@H](C)CC[C@]3(CCC(=O)[C@H]32)[C@@H](C)[C@@H]1O` [Pleuromutilin], in data set [18], the “activity against vesicular stomatitis virus” value is given as “activity”. In addition, the antiviral activity entry in the data set with polio virus is listed as “did not show antiviral activity”; in [19], “antiviral activity”. For the same compound, in data set [20], the “CPE50 (concentration conferring 50% protection of the cytopathic effect induced by HSV-1)” value was 15 µg/mL. Also, the pEC50 in data set [20] (read-out: CPE50 (concentration conferring 50% protection of the cytopathic effect induced by HSV-1)) is 4.40.
With `C=C[C@]1(C)C[C@@H](OC(=O)CS[C@@H]2CC[C@@H](N)C[C@H]2O)[C@]2(C)[C@H](C)CC[C@]3(CCC(=O)[C@H]32)[C@@H](C)[C@@H]1O` [Lefamulin, reference compound], the minimum inhibitory concentration (MIC) was 16 µg/mL (≈ 31.5 µM) in [2] (Streptococcus agalactiae); not above 0.03 µg/mL in data set [3] (setting [24]); 16 µg/mL (≈ 31.5 µM) in data set [4] (Staphylococcus aureus); 8 µg/mL (≈ 15.8 µM) in data set [5] (Staphylococcus aureus); not above 0.03 µg/mL in [6].
In the case of TMC353121 [reference compound], the pEC50 was 11.00 in data set [11] (RSV B strain (RSV B18537), HEp2, text) and 11.00 in [14] (RSV A strain (RSV ALONG), HEp2, text, read-out: EC50).
For `C=C[C@]1(C)C[C@@H](OC(=O)CSCCN(CC)CC)[C@]2(C)[C@H](C)CC[C@]3(CCC(=O)[C@H]32)[C@@H](C)[C@@H]1O` [Tiamulin, reference compound], the “reduction of viral CPE” value is on record as 16.76% in data set [12] (10 μM), 43.28% in data set [12] (50 μM), 10.53% in [8] (10 μM) and 81.68% in data set [8] (50 μM). Moreover, the pEC50 in data set [12] was less than 4.17; in data set [8] (setting [25]), 4.61. The “viability (cell control)” value in the data set on HEp2 cells (10 μM) turned out to be 84%; with HEp2 cells (50 μM) it was 70.0%. The figures for the “cytotoxic effect on the viability of the cell control” value in the data set on MRC-5 cells (10 μM) and with MRC-5 cells (50 μM) were “no cytotoxic effect” and “cytotoxic effect”, respectively.
